Consider 31 compounds from publication PMC8286840, “Identifying SARS-CoV-2 antiviral compounds by screening for small molecule inhibitors of Nsp3 papain-like protease” (Biochemical Journal, 2021).

Structures can show the parent of a compound that is named as a salt. Where two headings read alike, the source gives them in different places.

Assay [1] concerns the target T1, SARS-CoV-2 PLpro (nsp3 1564–1878) (Severe acute respiratory syndrome coronavirus 2, UniProt P0DTD1). Briefly: biochemical. To be noted: read-out: % of control remaining. Details: FRET-quenched peptide (Pro3) cleavage by PLpro, 10 min pre-incubation, slope over 20 min, normalised to no-compound control.
The target in assay [2] is T1, SARS-CoV-2 PLpro (nsp3 1564–1878). Briefly: biochemical. Details: FRET-quenched peptide (Pro3) cleavage by PLpro, 10 min pre-incubation, slope over 20 min, normalised to no-compound control. Conditions: read-out: % of control remaining. The source holds these as a separate data set.

With `c1ccc2c(Oc3nc(Nc4ccc(N5CCOCC5)cc4)c4ncn(C5CCCCC5)c4n3)cccc2c1` [9-cyclohexyl-N-[4-(4-morpholinyl)phenyl]-2-(1-naphthyloxy)-9H-purin-6-amine], the remaining activity at 1.25 µM in assay [1] (Well no.=5695, low concentration screen) was 98.5%. In addition, in assay [2] (Well no.=5695, high concentration screen), the remaining activity at 3.75 µM was 97.8%.

Take `CC(C)=CCC[C@]1(C)C=Cc2c(O)c3c(c(CC=C(C)C)c2O1)O[C@]12C(=C[C@@H]4C[C@H]1C(C)(C)O[C@@]2(C/C=C(/C)C(=O)O)C4=O)C3=O` [Gambogic Acid]: the remaining activity at 1.25 µM turned out to be 94.4% in assay [1] (Well no.=3723, low concentration screen) and 96.6% in assay [1] (Well no.=6926, low concentration screen). Moreover, the remaining activity at 3.75 µM in assay [2] (Well no.=3723, high concentration screen) is 97.8%; in assay [2] (Well no.=6926, high concentration screen), 91.9%.

Turning to `O=C1Nc2ccccc2C1=O` [Isatin], the remaining activity at 1.25 µM in assay [1] (Well no.=8350, low concentration screen) is 95.6%. The remaining activity at 3.75 µM in assay [2] (Well no.=8350, high concentration screen) was found to be 95.1%.

As to `CCOC(=O)[C@]12CC1/C(=N\O)c1ccccc1O2` (mixture of isomers) [CPCCOEt], the remaining activity at 1.25 µM in assay [1] (Well no.=286, low concentration screen) turned out to be 95.2%. Moreover, the remaining activity at 3.75 µM in assay [2] (Well no.=286, high concentration screen) stood at 99.4%.

As to `CC(C)(S)[C@H](N)C(=O)O` [L-Penicillamine], the remaining activity at 1.25 µM in assay [1] (Well no.=3332, low concentration screen) was found to be 100%. Also, the remaining activity at 3.75 µM in assay [2] (Well no.=3332, high concentration screen) is 99.5%.

Consider `COC(=O)Nc1nc2cc([S+]([O-])c3ccccc3)ccc2[nH]1` (stereo not drawn) [Oxfendazole], for which the remaining activity at 1.25 µM in assay [1] (Well no.=2059, low concentration screen) came to 105%. In addition, the remaining activity at 3.75 µM in assay [2] (Well no.=2059, high concentration screen) was determined as 105%.

`CN1CCN2c3ncccc3Cc3ccccc3C2C1` (stereo not drawn) [Mirtazapine]: the remaining activity at 1.25 µM in assay [1] (Well no.=6564, low concentration screen) was 106%. The remaining activity at 3.75 µM in assay [2] (Well no.=6564, high concentration screen) was determined as 106%.

As to `CC(C)(Cc1ccc2ccccc2c1)NC[C@@H](O)COc1cccc(Cl)c1C#N` [NPS-2143 (hydrochloride)], the remaining activity at 1.25 µM in assay [1] (Well no.=7051, low concentration screen) is 107%. The remaining activity at 3.75 µM in assay [2] (Well no.=7051, high concentration screen) was 105%.

`c1ccc2c(c1)CCCC2C1=NCCN1` (stereo not drawn) [Tetrahydrozoline hydrochloride]: the remaining activity at 1.25 µM in assay [1] (Well no.=1239, low concentration screen) stood at 103%. For the same compound, the remaining activity at 3.75 µM in assay [2] (Well no.=1239, high concentration screen) turned out to be 103%.

For `Cc1ccccc1C(=O)NCC(=O)O` [2-(2-Methylbenzamido)acetic acid], in assay [1] (Well no.=6725, low concentration screen), the remaining activity at 1.25 µM was 103%. The remaining activity at 3.75 µM in assay [2] (Well no.=6725, high concentration screen) came to 104%.

On to `O=C1C[C@@H]2OCC=C3CN4CC[C@]56c7ccccc7N1[C@H]5[C@H]2[C@H]3C[C@H]46`, for which the remaining activity at 1.25 µM in assay [1] amounted to 94.4%. The remaining activity at 3.75 µM in assay [2] was found to be 94.7%.

As for `CCOC(=O)CCNc1cc(N2CCc3ccccc3CC2)nc(-c2ccccn2)n1` [GSK-J4], in assay [1] (Well no.=5779, low concentration screen), the remaining activity at 1.25 µM worked out at 106%. Further, the remaining activity at 3.75 µM in assay [2] (Well no.=5779, high concentration screen) stood at 106%.

Take `C/C(Nc1ccccc1)=C1\C(=O)NC(Cc2ccccc2)C1=O` (stereo not drawn) [(3E)-3-(1-anilinoethylidene)-5-benzyl-2,4-pyrrolidinedione]: the remaining activity at 1.25 µM in assay [1] (Well no.=5686, low concentration screen) was found to be 96.9%. Besides, the remaining activity at 3.75 µM in assay [2] (Well no.=5686, high concentration screen) was 97.8%.

Take `CCCCc1nc(Cl)c(CO)n1Cc1ccc(-c2ccccc2-c2nnn[nH]2)cc1` [Losartan (potassium)]: the remaining activity at 1.25 µM in assay [1] (Well no.=8239, low concentration screen) came out at 101%. The remaining activity at 3.75 µM in assay [2] (Well no.=8239, high concentration screen) is 104%.

As to `COc1ccc(-c2cc(=O)c3c(O)c(OC)c(OC)cc3o2)cc1O` [5-hydroxy-2-(3-hydroxy-4-methoxyphenyl)-6,7-dimethoxy-4H-chromen-4-one], the remaining activity at 1.25 µM in assay [1] (Well no.=5983, low concentration screen) was found to be 98.6%. Moreover, the remaining activity at 3.75 µM in assay [2] (Well no.=5983, high concentration screen) was 95.3%.

With `CC(C)N(CCC(C(N)=O)(c1ccccc1)c1ccccn1)C(C)C` (stereo not drawn) [Disopyramide phosphate], in assay [1] (Well no.=436, low concentration screen), the remaining activity at 1.25 µM was 97.6%. Moreover, the remaining activity at 3.75 µM in assay [2] (Well no.=436, high concentration screen) amounted to 98.8%.

For the compound `C=C1/C(=C\C=C2/CCC[C@]3(C)[C@@H]([C@H](C)CCCC(C)C)CC[C@@H]23)C[C@@H](O)C[C@@H]1O` [Alfacalcidol], in assay [1] (Well no.=1854, low concentration screen), the remaining activity at 1.25 µM was found to be 96.4%. In addition, in assay [2] (Well no.=1854, high concentration screen), the remaining activity at 3.75 µM came out at 99.8%.

Take `CN(C)CCCOc1nn(Cc2ccccc2)c2ccccc12` [Benzydamine]: the remaining activity at 1.25 µM in assay [1] (Well no.=2302, low concentration screen) was found to be 95.4%. The remaining activity at 3.75 µM in assay [2] (Well no.=2302, high concentration screen) worked out at 96.1%.

As to `O=S(=O)(CC1CS1)c1ccc(Oc2ccccc2)cc1` (stereo not drawn) [SB-3CT], the remaining activity at 1.25 µM in assay [1] (Well no.=8478, low concentration screen) is 95.9%. Moreover, the remaining activity at 3.75 µM in assay [2] (Well no.=8478, high concentration screen) was determined as 91.4%.

For `CC(C)C(N)CC(=O)O` (stereo not drawn) [3-Amino-4-methylpentanoic acid], in assay [1] (Well no.=6403, low concentration screen), the remaining activity at 1.25 µM turned out to be 103%. Besides, the remaining activity at 3.75 µM in assay [2] (Well no.=6403, high concentration screen) amounted to 105%.

For the compound `CC1=NN=C(c2ccc(N)cc2)c2cc3c(cc2C1)OCO3` [GYKI 52466 hydrochloride], the remaining activity at 1.25 µM in assay [1] (Well no.=748, low concentration screen) worked out at 92.9%. The remaining activity at 3.75 µM in assay [2] (Well no.=748, high concentration screen) is 92.5%.

For `COc1ccc(OC)c([C@@H](O)[C@H](C)N)c1` [Methoxamine hydrochloride], the remaining activity at 1.25 µM in assay [1] (Well no.=980, low concentration screen) worked out at 100%. Besides, the remaining activity at 3.75 µM in assay [2] (Well no.=980, high concentration screen) was 101%.

Turning to `CC1(C)[C@@H](O[C@H]2O[C@H](C(=O)O)[C@@H](O)[C@H](O)[C@H]2O[C@@H]2O[C@H](C(=O)O)[C@@H](O)[C@H](O)[C@H]2O)CC[C@]2(C)[C@H]3C(=O)C=C4[C@@H]5C[C@@](C)(C(=O)O)CC[C@]5(C)CC[C@@]4(C)[C@]3(C)CC[C@@H]12` [Ammonium Glycyrrhizinate], the remaining activity at 1.25 µM in assay [1] (Well no.=8386, low concentration screen) came to 97.7%. For the same compound, the remaining activity at 3.75 µM in assay [2] (Well no.=8386, high concentration screen) came to 99%.

Take `CC[C@H]1CN(c2nc(N)c(C(N)=O)nc2Cl)CCN1C1CCN(Cc2ccc(Cl)cc2)CC1` [SCH 546738]: the remaining activity at 1.25 µM in assay [1] (Well no.=8659, low concentration screen) was 103%. For the same compound, the remaining activity at 3.75 µM in assay [2] (Well no.=8659, high concentration screen) worked out at 106%.

In the case of `CC1=C(/C=C/C(C)=C/C=C/C(C)=C/C=C/C=C(C)/C=C/C=C(C)/C=C/C2=C(C)C(=O)[C@@H](O)CC2(C)C)C(C)(C)C[C@H](O)C1=O` [Astaxanthin], in assay [1] (Well no.=296, low concentration screen), the remaining activity at 1.25 µM was determined as 93.3%. Besides, the remaining activity at 3.75 µM in assay [2] (Well no.=296, high concentration screen) was 92.4%.

In the case of `CCCCOc1nc(N)c2c(n1)N(Cc1cccc(CN3CCCC3)c1)CC(=O)N2` [Vesatolimod], the remaining activity at 1.25 µM in assay [1] (Well no.=8127, low concentration screen) was determined as 105%. Besides, the remaining activity at 3.75 µM in assay [2] (Well no.=8127, high concentration screen) was 102%.

For the compound `O=C(O)[C@@H]1C[C@@H](O)CN1` [L-Hydroxyproline], the remaining activity at 1.25 µM is 101% in assay [1] (Well no.=6735, low concentration screen) and 94.2% in assay [1] (Well no.=8744, low concentration screen). The remaining activity at 3.75 µM came to 102% in assay [2] (Well no.=6735, high concentration screen) and 91.4% in assay [2] (Well no.=8744, high concentration screen).

Turning to `CC1=CC(=O)CC(C)(C)C1(O)/C=C/C(C)=C\C(=O)O` (racemic), the remaining activity at 1.25 µM in assay [1] (Well no.=3152, low concentration screen) came to 101%. In assay [2] (Well no.=3152, high concentration screen), the remaining activity at 3.75 µM came out at 102%.

`OC[C@@H](O)[C@H](O)[C@H](O)[C@@H](O)CO` [Dulcite]: in assay [1] (Well no.=6883, low concentration screen), the remaining activity at 1.25 µM was 99.2%. Besides, the remaining activity at 3.75 µM in assay [2] (Well no.=6883, high concentration screen) came to 94.4%.

As for `CCCN1CCC[C@@H]2Cc3[nH]ncc3C[C@H]21` [(-)-Quinpirole hydrochloride], the remaining activity at 1.25 µM in assay [1] (Well no.=1269, low concentration screen) worked out at 96.5%. In assay [2] (Well no.=1269, high concentration screen), the remaining activity at 3.75 µM stood at 99.7%.

Regarding `CN(C)C(=N)NC(=N)N` [Metformin], the remaining activity at 1.25 µM in assay [1] (Well no.=1627, low concentration screen) was 103%. Further, the remaining activity at 3.75 µM in assay [2] (Well no.=1627, high concentration screen) amounted to 103%.
